In experiment [1] the target is Tyk-2 (Homo sapiens (Human), UniProt P29597). Description: Tyk-2 enzyme activity assay (Thermo Fisher SelectScreen, Z-lyte). In kind it is biochemical. The following applies: read-out: Tyk-2 Inhibition IC50. Summed up: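 Z-lyte FRET assay: 3.75–15 ng TYK2 with […] Tyr 03 peptide in HEPES pH 7.0, MgCl2, EGTA, BRIJ-35; 1 h reaction, then development reagent. 11-point dose-response, 2% DMSO; IC50 via 4-parameter fit of emission ratio, background without enzyme.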

The subject of experiment [2] is IL-12 stimulated STAT4 phosphorylation on Tyr693 (JAK2/TYK2). Put plainly: JAK2/TYK2 cellular target modulation: IL-12 stimulated phospho-STAT4 in PBMC. In kind it is cell-based. The following applies: human PBMC, IL-12 1.7 ng/ml; read-out: IL12-STAT4 IC50. Put shortly:
(§1)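 Thawed human PBMC (200,000/well, RPMI/10% FBS) were preincubated with compound for 1 h at 37 °C, added from 10× stocks in 1% DMSO. Stimulation and read-out: IL-2 25 ng/ml, 5 min, pSTAT5 by MSD; IL-12 1.7 ng/ml, 25 min, pSTAT4 by MSD; IFNγ 10 ng/ml, 10 min, pSTAT1 by sandwich ELISA.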

Experiment [3] deals with JAK1 (Homo sapiens (Human), UniProt P23458). Put plainly: JAK1 enzyme activity assay (Thermo Fisher SelectScreen, Z-lyte). In kind it is biochemical. The following applies: read-out: JAK1 Inhibition IC50. Put shortly: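 Z-lyte assay with 21.2-91.5 ng JAK and […] Tyr 06 in 50 mM HEPES pH 7.0, 10 mM MgCl2, 1 mM EGTA, 0.01% BRIJ-35; 1 h kinase reaction, then development reagent. 11-point dose-response from […] to 0.34 nM, 2% DMSO vehicle; IC50 from 4-parameter logistic fit of emission ratio.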

Experiment [4] deals with IL-2 stimulated STAT5 phosphorylation on Tyr694 (JAK1/3). Description: JAK1/3 cellular target modulation: IL-2 stimulated phospho-STAT5 in PBMC. In kind it is cell-based. The following applies: human PBMC, IL-2 25 ng/ml; read-out: IL2-STAT5 IC50. Put shortly:
as §1

Experiment [5] deals with JAK3 (a.a. 781-1124) (Homo sapiens (Human), UniProt P52333). Put plainly: JAK3 enzyme activity assay (SRCtide phosphorylation, Caliper). In kind it is biochemical. The following applies: 1 uM ATP; read-out: JAK3 Inhibition IC50.
Experiment [6] has as its system IFNγ stimulated STAT1 phosphorylation on Tyr701 (JAK1/2). Description: JAK1/2 cellular target modulation: IFNγ stimulated phospho-STAT1 in PBMC. In kind it is cell-based. The following applies: human PBMC, IFNγ 10 ng/ml; read-out: Infγ-STAT1 IC50. Summed up:
as §1

Experiment [7] has as its target JAK2 (Homo sapiens (Human), UniProt O60674). Description: JAK2 enzyme activity assay (Thermo Fisher SelectScreen, Z-lyte). The following applies: read-out: JAK2 Inhibition IC50. In kind it is biochemical. Put shortly:
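Z-lyte FRET kinase assay: 0.12-0.5 ng JAK2 with […] Tyr 06 peptide in 50 mM HEPES pH 7.5, 0.01% BRIJ-35, 10 mM MgCl2, 1 mM EGTA, 1 h reaction before development reagent. 11-point dose-response from […] to 0.34 nM, 2% DMSO; IC50 from 4-parameter fit of emission ratio.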

The record followed here is patent publication US11420966B2 (ACLARIS THERAPEUTICS, INC., priority 2019, dated 2022).

Structures are written as SMILES.

Chain of JAK3 (a.a. 781-1124) (P52333 781-1124): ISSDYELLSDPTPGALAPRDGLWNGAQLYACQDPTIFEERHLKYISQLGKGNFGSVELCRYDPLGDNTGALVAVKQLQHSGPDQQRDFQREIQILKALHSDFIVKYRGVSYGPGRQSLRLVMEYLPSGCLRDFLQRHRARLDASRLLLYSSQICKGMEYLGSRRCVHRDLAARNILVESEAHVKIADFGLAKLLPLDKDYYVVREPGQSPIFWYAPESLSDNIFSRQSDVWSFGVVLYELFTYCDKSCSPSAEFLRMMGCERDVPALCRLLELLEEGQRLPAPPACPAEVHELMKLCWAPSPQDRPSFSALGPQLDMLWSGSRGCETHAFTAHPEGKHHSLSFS
Chain of JAK1 (P23458 whole entry): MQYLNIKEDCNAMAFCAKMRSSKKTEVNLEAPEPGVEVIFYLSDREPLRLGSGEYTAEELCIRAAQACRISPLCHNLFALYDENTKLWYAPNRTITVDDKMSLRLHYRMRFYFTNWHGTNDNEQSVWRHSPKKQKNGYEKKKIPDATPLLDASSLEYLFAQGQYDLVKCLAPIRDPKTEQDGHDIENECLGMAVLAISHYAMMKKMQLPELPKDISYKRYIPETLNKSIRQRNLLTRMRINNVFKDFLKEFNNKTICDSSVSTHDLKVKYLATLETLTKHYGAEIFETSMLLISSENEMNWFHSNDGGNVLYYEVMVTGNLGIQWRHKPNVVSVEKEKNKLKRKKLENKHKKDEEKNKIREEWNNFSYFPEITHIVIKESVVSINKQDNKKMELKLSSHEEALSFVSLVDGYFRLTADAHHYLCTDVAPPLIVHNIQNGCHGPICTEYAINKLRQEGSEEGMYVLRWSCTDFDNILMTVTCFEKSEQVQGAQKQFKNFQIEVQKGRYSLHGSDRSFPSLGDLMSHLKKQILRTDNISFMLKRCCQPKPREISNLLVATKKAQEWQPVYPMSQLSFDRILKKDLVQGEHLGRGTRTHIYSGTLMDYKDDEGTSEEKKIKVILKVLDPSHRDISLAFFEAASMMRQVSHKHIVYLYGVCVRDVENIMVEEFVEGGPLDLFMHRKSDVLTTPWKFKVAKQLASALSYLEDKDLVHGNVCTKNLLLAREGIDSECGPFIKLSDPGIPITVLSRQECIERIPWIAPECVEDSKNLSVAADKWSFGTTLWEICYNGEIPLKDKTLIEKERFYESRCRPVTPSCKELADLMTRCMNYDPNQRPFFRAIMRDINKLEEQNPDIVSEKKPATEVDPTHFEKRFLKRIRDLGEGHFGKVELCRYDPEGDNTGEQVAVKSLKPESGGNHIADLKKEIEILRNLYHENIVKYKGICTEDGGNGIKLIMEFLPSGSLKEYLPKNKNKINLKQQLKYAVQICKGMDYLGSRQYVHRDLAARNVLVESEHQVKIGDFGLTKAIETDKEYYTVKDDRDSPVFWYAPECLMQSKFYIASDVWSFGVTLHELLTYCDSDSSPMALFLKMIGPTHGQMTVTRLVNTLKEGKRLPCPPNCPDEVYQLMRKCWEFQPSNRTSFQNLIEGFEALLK
Chain of JAK2 (O60674 whole entry): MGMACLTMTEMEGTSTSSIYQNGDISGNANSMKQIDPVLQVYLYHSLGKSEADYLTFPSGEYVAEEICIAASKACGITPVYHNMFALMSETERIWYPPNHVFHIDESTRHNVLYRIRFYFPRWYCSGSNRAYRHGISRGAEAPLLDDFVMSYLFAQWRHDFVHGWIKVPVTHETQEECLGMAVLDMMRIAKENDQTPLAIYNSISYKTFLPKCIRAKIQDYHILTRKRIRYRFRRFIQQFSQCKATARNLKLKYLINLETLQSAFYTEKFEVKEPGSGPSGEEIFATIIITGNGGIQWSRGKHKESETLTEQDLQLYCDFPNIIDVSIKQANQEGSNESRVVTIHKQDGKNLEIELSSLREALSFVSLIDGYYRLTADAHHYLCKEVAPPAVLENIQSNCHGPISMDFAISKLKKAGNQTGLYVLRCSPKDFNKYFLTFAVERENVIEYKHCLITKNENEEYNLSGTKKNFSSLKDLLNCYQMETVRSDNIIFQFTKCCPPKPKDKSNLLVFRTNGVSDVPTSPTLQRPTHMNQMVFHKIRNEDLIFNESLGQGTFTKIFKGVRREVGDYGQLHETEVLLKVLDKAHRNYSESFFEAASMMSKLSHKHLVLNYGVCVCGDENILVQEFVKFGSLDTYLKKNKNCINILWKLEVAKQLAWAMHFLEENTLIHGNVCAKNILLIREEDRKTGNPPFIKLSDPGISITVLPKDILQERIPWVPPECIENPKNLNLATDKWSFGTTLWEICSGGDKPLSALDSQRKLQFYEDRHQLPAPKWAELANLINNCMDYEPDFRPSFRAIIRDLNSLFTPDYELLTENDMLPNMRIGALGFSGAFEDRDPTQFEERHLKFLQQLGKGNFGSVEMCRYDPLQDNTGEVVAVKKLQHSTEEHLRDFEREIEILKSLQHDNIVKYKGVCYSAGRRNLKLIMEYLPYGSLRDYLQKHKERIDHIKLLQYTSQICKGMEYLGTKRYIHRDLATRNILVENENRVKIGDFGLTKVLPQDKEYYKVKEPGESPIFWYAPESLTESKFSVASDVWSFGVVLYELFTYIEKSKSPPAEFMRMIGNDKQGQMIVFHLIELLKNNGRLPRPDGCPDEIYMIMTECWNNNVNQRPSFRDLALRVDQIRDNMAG
Chain of Tyk-2 (P29597 whole entry): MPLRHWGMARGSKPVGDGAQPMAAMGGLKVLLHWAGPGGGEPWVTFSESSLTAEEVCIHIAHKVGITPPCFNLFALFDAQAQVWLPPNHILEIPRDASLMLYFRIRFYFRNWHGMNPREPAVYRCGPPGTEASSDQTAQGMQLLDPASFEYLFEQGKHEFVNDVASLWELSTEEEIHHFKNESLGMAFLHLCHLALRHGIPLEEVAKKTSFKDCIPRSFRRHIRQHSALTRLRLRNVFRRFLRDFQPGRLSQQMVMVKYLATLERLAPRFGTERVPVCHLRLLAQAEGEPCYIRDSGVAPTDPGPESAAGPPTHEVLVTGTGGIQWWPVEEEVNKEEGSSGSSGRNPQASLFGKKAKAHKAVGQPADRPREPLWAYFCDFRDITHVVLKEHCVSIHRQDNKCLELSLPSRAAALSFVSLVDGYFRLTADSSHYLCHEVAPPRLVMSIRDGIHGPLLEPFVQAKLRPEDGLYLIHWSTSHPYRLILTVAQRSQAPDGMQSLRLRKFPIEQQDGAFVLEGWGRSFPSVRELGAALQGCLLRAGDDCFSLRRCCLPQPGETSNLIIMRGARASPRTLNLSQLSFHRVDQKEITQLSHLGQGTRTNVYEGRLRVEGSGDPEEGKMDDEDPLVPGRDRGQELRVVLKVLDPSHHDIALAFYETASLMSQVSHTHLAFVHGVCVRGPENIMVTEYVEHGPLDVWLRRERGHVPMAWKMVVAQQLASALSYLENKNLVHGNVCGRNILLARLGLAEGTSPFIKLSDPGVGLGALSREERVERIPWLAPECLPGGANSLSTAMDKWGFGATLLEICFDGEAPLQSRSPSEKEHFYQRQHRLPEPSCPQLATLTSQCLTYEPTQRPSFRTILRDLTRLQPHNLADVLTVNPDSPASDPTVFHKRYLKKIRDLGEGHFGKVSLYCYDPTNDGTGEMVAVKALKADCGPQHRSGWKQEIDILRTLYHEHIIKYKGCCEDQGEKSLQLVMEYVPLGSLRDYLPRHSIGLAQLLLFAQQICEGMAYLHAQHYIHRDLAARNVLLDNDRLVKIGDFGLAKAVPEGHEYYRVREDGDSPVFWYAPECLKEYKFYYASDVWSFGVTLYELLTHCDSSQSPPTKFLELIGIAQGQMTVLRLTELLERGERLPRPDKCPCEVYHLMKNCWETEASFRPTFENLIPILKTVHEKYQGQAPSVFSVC

Regarding `N#CCC(=O)N1CCC[C@@H](Nc2c(-c3ncon3)cnc3[nH]ccc23)C1` [Example 38, (R)-3-(3-((5-(1,2,4-oxadiazol-3-yl)-1H-pyrrolo[2,3-b]pyridin-4-yl)amino)piperidin-1-yl)-3-oxopropanenitrile], the 50% inhibitory concentration (IC50) in experiment [1] is 100 to 1000 nM; in experiment [2], over 1000 nM; in experiment [3], 10 to 100 nM; in experiment [4] it was 100 to 1000 nM; in experiment [5], 10 to 100 nM; in experiment [6] it was over 1000 nM. Besides, in experiment [7], the IC50 fell in the range of 10 to 100 nM.

Take `O[C@H]1CC[C@@H](Nc2c(-c3ncco3)cnc3[nH]ccc23)C1` [Example 13, (1S,3R)-3-((5-(oxazol-2-yl)-1H-pyrrolo[2,3-b]pyridin-4-yl)amino)cyclopentan-1-ol]: the IC50 in experiment [1] is 100 to 1000 nM; in experiment [2], over 1000 nM; in experiment [3] it was 10 to 100 nM; in experiment [4], 100 to 1000 nM; in experiment [5], 10 to 100 nM; in experiment [6], over 1000 nM. The IC50 in experiment [7] lay within 10 to 100 nM.

As to `N#CCC(=O)N1CCC[C@@H](Nc2c(-c3cccc(CO)n3)cnc3[nH]ccc23)C1` [Example 63], the IC50 in experiment [1] is 10 to 100 nM; in experiment [2], over 1000 nM; in experiment [3] it was at most 10 nM; in experiment [4], at most 100 nM; in experiment [5] it was at most 10 nM; in experiment [6] it was 100 to 1000 nM. Also, in experiment [7], the half-inhibitory concentration (IC50) is at most 10 nM.

As to `CNC(=O)c1coc(-c2cnc3[nH]ccc3c2N[C@@H]2CC[C@H](C)N(C(=O)CC#N)C2)n1` [Example 30, 2-(4-(((3R,6S)-1-(2-cyanoacetyl)-6-methylpiperidin-3-yl)amino)-1H-pyrrolo[2,3-b]pyridin-5-yl)-N-methyloxazole-4-carboxamide], the IC50 in experiment [1] was at most 10 nM; in experiment [2], over 1000 nM; in experiment [3] it was at most 10 nM; in experiment [4], 100 to 1000 nM; in experiment [5], 100 to 1000 nM; in experiment [6] it was 100 to 1000 nM. In addition, the IC50 in experiment [7] is at most 10 nM.

For the compound `C[C@H]1C[C@@H](Nc2c(-c3nccs3)cnc3[nH]ccc23)CN(CC2CC2(F)F)C1` (stereo partly drawn) [Example 67, N-((3R,5S)-1-((2,2-difluorocyclopropyl)methyl)-5-methylpiperidin-3-yl)-5-(thiazol-2-yl)-1H-pyrrolo[2,3-b]pyridin-4-amine], the IC50 was 10 to 100 nM in experiment [1]; over 1000 nM in experiment [2]; 10 to 100 nM in experiment [3]; 100 to 1000 nM in experiment [4]; at most 10 nM in experiment [5]; 100 to 1000 nM in experiment [6]. Also, the IC50 in experiment [7] was 10 to 100 nM.

As to `N#CCC(=O)N1CCC[C@@H](Nc2c(-c3ccccn3)cnc3[nH]ccc23)C1` [Example 21, (R)-3-oxo-3-(3-((5-(pyridin-2-yl)-1H-pyrrolo[2,3-b]pyridin-4-yl)amino)piperidin-1-yl)propanenitrile], the IC50 is 10 to 100 nM in experiment [1]; 100 to 1000 nM in experiment [2]; at most 10 nM in experiment [3]; at most 100 nM in experiment [4]; 10 to 100 nM in experiment [5]; 100 to 1000 nM in experiment [6]. Besides, the IC50 in experiment [7] was 10 to 100 nM.

Regarding `N#CCC(=O)N1CCC[C@@H](Nc2c(-c3ccnc(N)n3)cnc3[nH]ccc23)C1` [Example 51, (R)-3-(3-((5-(2-aminopyrimidin-4-yl)-1H-pyrrolo[2,3-b]pyridin-4-yl)amino)piperidin-1-yl)-3-oxopropanenitrile], the IC50 in experiment [1] was 10 to 100 nM; in experiment [2], over 1000 nM; in experiment [3] it was at most 10 nM; in experiment [4], 100 to 1000 nM; in experiment [5], at most 10 nM; in experiment [6], 100 to 1000 nM. For the same compound, the half-maximal inhibitory concentration (IC50) in experiment [7] was at most 10 nM.

On to `CCOC(=O)c1cnc(-c2cnc3[nH]ccc3c2N[C@@H]2CCCN(C(=O)CC#N)C2)s1` [Example 42, ethyl (R)-2-(4-((1-(2-cyanoacetyl)piperidin-3-yl)amino)-1H-pyrrolo[2,3-b]pyridin-5-yl)thiazole-5-carboxylate], for which the IC50 in experiment [1] was at most 10 nM; in experiment [2], 100 to 1000 nM; in experiment [3], at most 10 nM; in experiment [4], at most 100 nM; in experiment [5], at most 10 nM; in experiment [6], 100 to 1000 nM. Besides, in experiment [7], the IC50 is at most 10 nM.

Regarding `N#CCC(=O)N1CCC[C@@H](Nc2c(-c3ncco3)cnc3[nH]ccc23)C1` [Example 5, (R)-3-(3-((5-(oxazol-2-yl)-1H-pyrrolo[2,3-b]pyridin-4-yl)amino)piperidin-1-yl)-3-oxopropanenitrile], the IC50 is at most 10 nM in experiment [1]; 100 to 1000 nM in experiment [2]; at most 10 nM in experiment [3]; at most 100 nM in experiment [4]; at most 10 nM in experiment [5]; at most 100 nM in experiment [6]. Also, the IC50 in experiment [7] was at most 10 nM.

For the compound `CS(=O)(=O)c1cnc(-c2cnc3[nH]ccc3c2N[C@@H]2CCCN(CCC#N)C2)s1` [Example 47, (R)-3-(3-((5-(5-(methylsulfonyl)thiazol-2-yl)-1H-pyrrolo[2,3-b]pyridin-4-yl)amino)piperidin-1-yl)propanenitrile], the IC50 in experiment [1] is 10 to 100 nM; in experiment [2], over 1000 nM; in experiment [3] it was 10 to 100 nM; in experiment [4] it was 100 to 1000 nM; in experiment [5], 10 to 100 nM; in experiment [6] it was over 1000 nM. For the same compound, the half-inhibitory concentration (IC50) in experiment [7] lay in the range of 10 to 100 nM.

With `N#CCC(=O)N1CCC[C@@H](Nc2c(-c3nccs3)cnc3[nH]ccc23)C1` [Example 4, (R)-3-oxo-3-(3-((5-(thiazol-2-yl)-1H-pyrrolo[2,3-b]pyridin-4-yl)amino)piperidin-1-yl)propanenitrile], the IC50 in experiment [1] is at most 10 nM; in experiment [2], 100 to 1000 nM; in experiment [3], at most 10 nM; in experiment [4], at most 100 nM; in experiment [5], at most 10 nM; in experiment [6], at most 100 nM. For the same compound, in experiment [7], the IC50 was at most 10 nM.

Take `Cc1cnc(-c2cnc3[nH]ccc3c2N[C@@H]2CCCN(CCC#N)C2)o1` [Example 37, (R)-3-(3-((5-(5-methyloxazol-2-yl)-1H-pyrrolo[2,3-b]pyridin-4-yl)amino)piperidin-1-yl)propanenitrile]: the IC50 in experiment [1] was 10 to 100 nM; in experiment [2] it was over 1000 nM; in experiment [3] it was at most 10 nM; in experiment [4] it was at most 100 nM; in experiment [5], at most 10 nM; in experiment [6] it was 100 to 1000 nM. The IC50 in experiment [7] was 10 to 100 nM.

Turning to `CS(=O)(=O)c1cnc(-c2cnc3[nH]ccc3c2N[C@@H]2CCCN(C(=O)CC#N)C2)s1` [Example 46, (R)-3-(3-((5-(5-(methylsulfonyl)thiazol-2-yl)-1H-pyrrolo[2,3-b]pyridin-4-yl)amino)piperidin-1-yl)-3-oxopropanenitrile], the IC50 in experiment [1] was at most 10 nM; in experiment [2], 100 to 1000 nM; in experiment [3] it was at most 10 nM; in experiment [4], at most 100 nM; in experiment [5] it was at most 10 nM; in experiment [6], at most 100 nM. Moreover, the IC50 in experiment [7] is at most 10 nM.

As a reminder, the IC50 is the concentration needed to halve the response being measured.
